Assay results from ChEMBL document CHEMBL1141231, “Discovery and development of a new class of potent, selective, orally active oxytocin receptor antagonists” (J Med Chem, 2005).

Biological target: Vasopressin V1a receptor (Homo sapiens, UniProt P37288)
Assay: Displacement of [125I]LVA antagonist from human vasopressin 1a receptor expressed in HEK293-EBNA cells
Format: cell-based
Details: not given

Sequence of Vasopressin V1a receptor (P37288 whole entry): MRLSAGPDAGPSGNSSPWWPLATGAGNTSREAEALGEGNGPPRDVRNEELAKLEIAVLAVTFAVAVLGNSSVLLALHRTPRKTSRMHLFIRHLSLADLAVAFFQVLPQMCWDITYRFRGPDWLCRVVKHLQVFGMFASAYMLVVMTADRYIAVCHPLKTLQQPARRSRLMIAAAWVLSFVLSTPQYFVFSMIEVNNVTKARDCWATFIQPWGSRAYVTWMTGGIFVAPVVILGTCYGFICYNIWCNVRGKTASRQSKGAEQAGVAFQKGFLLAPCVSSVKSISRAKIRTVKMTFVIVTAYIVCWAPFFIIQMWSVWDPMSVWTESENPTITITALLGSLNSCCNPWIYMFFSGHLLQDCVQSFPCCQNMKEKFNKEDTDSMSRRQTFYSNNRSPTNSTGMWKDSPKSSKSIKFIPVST

Structure (SMILES)	Ki [nM]
COC(=O)c1cccc2c1NC(=O)/C2=N\NC(=O)CN(c1ccc(Cl)cc1)S(=O)(=O)c1ccc(OCCCN(C)C)cc1	1290
CCOc1ccc(S(=O)(=O)N(CC(=O)N/N=C/c2ccccc2NC(C)=O)c2ccc(C)cc2)cc1	> 10000
CCOc1ccc(S(=O)(=O)N(CC(=O)N2Cc3ccccc3C2C(N)=O)c2ccc(OC)cc2)cc1 (configuration not stated)	1600
CCOc1ccc(S(=O)(=O)N(CC(=O)N2Cc3ccccc3CC2CC(N)=O)c2ccc(OC)cc2)cc1 (configuration not stated)	1600
COc1ccc(N(CC(=O)Nc2ccc(Cl)cc2C)S(=O)(=O)c2ccccc2)cc1	70
Cc1ccc(N(CC(=O)N/N=C2\C(=O)Nc3ccccc32)S(=O)(=O)c2ccc(C#N)cc2)cc1	6880
C/C(=N\NC(=O)CN(c1cccc(Cl)c1)S(=O)(=O)c1ccccc1)c1ccccc1O	600
CN(C)CCCOc1ccc(S(=O)(=O)N(CC(=O)N/N=C2\C(=O)N(CC(N)=O)c3ccccc32)c2ccc(Cl)cc2)cc1	1100
C/C(=N\NC(=O)CN(c1ccccc1)S(=O)(=O)c1ccccc1)c1ccccc1O	> 10000
CCCOc1ccc(S(=O)(=O)N(CC(=O)N/N=C2\C(=O)Nc3ccccc32)c2ccc(C)cc2)cc1	3730
COc1ccc(N(CC(=O)Nc2cccc(Cl)c2C)S(=O)(=O)c2ccccc2)cc1	300
CCCOc1ccc(S(=O)(=O)N(CC(=O)N/N=C2\C(=O)Nc3ccccc32)c2ccc(Cl)cc2)cc1	1390
COc1ccc(N(CC(=O)N2CCc3ccccc3C2)S(=O)(=O)c2ccccc2)cc1	115

Next, values leading:

Ki [nM]	Structure (SMILES)
596	COc1ccc(S(=O)(=O)N(CC(=O)/N=N/c2c(O)[nH]c3ccccc23)c2ccc(Cl)cc2)cc1OC
> 10000	CCOc1ccc(S(=O)(=O)N(CCC(=O)/N=N/c2c(O)[nH]c3ccccc23)c2ccc(C)cc2)cc1
> 10000	Cc1ccc(N(CC(=O)/N=N/c2c(O)[nH]c3ccccc23)S(=O)(=O)c2ccc3ccccc3c2)cc1
> 10000	CCOc1ccc(S(=O)(=O)N(CC(=O)/N=N/c2c(O)[nH]c3ccc(S(=O)(=O)O)cc23)c2ccc(C)cc2)cc1
> 10000	CCOc1ccc(S(=O)(=O)N(CC(=O)N/N=C/c2ccc(N(CC)CC)cc2O)c2ccc(C)cc2)cc1
3210	CCOc1ccc(S(=O)(=O)N(CC(=O)N/N=C/c2ccccc2O)c2ccc(C)cc2)cc1
> 10000	CN(C)CCCOc1ccc(S(=O)(=O)N(CC(=O)/N=N/c2c(O)[nH]c3c(C(=O)O)cccc23)c2ccc(Cl)cc2)cc1
> 10000	CCOc1ccc(S(=O)(=O)N(CC(=O)/N=N/c2c(O)[nH]c3ccc([N+](=O)[O-])cc23)c2ccccc2)cc1
> 10000	CCOc1ccc(S(=O)(=O)N(CC(=O)N/N=C/c2ccccc2N)c2ccc(C)cc2)cc1
> 10000	CCOc1ccc(S(=O)(=O)N(CC(=O)N/N=C(\C)c2c(O)ccc3ccccc23)c2ccc(C)cc2)cc1

Tested on: not listed separately
Assay: Solubility in aqueous medium
Format: physicochemical
Details: aqueous medium; read-out: Solubility

Structure (SMILES)	solubility [µg/mL]
CN(C)CCCNC(=O)CCc1ccc(S(=O)(=O)N(CC(=O)/N=N/c2c(O)[nH]c3ccccc23)c2ccc(Cl)cc2)cc1.O=C(O)C(F)(F)F	20000
CN(C)CCCNC(=O)CCc1ccc(S(=O)(=O)N(CC(=O)/N=N/c2c(O)[nH]c3ccccc23)c2ccc(Cl)cc2)cc1.O=C(O)/C=C/C(=O)O	20000

Continued, values first:

solubility [µg/mL]	Structure (SMILES)
180	CN(C)CCCOc1ccc(S(=O)(=O)N(CC(=O)/N=N/c2c(O)[nH]c3ccccc23)c2ccc(Cl)cc2)cc1.Cl
127	Cl.O=C(CN(c1ccc(Cl)cc1)S(=O)(=O)c1ccc(OCCN2CCOCC2)cc1)/N=N/c1c(O)[nH]c2ccccc12
20000	CN(C)CCCOc1ccc(S(=O)(=O)N(CC(=O)/N=N/c2c(O)[nH]c3ccncc23)c2ccc(Cl)cc2)cc1.O=C(O)C(F)(F)F

Biological target: T1, Oxytocin receptor (Homo sapiens, UniProt P30559)
T1 sequence (P30559 whole entry): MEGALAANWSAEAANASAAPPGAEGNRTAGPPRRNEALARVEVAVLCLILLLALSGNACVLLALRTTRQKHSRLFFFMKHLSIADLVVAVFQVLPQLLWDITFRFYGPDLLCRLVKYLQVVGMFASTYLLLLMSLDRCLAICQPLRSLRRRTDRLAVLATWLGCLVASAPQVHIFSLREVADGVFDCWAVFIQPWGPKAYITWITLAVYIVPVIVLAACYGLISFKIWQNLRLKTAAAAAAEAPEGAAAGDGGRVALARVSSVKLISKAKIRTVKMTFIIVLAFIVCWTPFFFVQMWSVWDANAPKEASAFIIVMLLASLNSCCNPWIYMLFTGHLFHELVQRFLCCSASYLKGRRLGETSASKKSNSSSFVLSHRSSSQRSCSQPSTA
Assay: biochemical
Format: cell-based, HEK293-EBNA
Details: not given

Structure (SMILES)	Ki [nM]
CCOc1ccc(S(=O)(=O)N(CC(=O)N/N=C/c2ccccc2NC(C)=O)c2ccc(C)cc2)cc1	> 10000
CCOc1ccc(S(=O)(=O)N(CC(=O)N2Cc3ccccc3C2C(N)=O)c2ccc(OC)cc2)cc1 (configuration not stated)	770
CCOc1ccc(S(=O)(=O)N(CC(=O)N2Cc3ccccc3CC2CC(N)=O)c2ccc(OC)cc2)cc1 (configuration not stated)	510
COc1ccc(N(CC(=O)Nc2ccc(Cl)cc2C)S(=O)(=O)c2ccccc2)cc1	800
Cc1ccc(N(CC(=O)N/N=C2\C(=O)Nc3ccccc32)S(=O)(=O)c2ccc(C#N)cc2)cc1	111
C/C(=N\NC(=O)CN(c1cccc(Cl)c1)S(=O)(=O)c1ccccc1)c1ccccc1O	4900
CN(C)CCCOc1ccc(S(=O)(=O)N(CC(=O)N/N=C2\C(=O)N(CC(N)=O)c3ccccc32)c2ccc(Cl)cc2)cc1	322
C/C(=N\NC(=O)CN(c1ccccc1)S(=O)(=O)c1ccccc1)c1ccccc1O	237
CCCOc1ccc(S(=O)(=O)N(CC(=O)N/N=C2\C(=O)Nc3ccccc32)c2ccc(C)cc2)cc1	21
COc1ccc(N(CC(=O)Nc2cccc(Cl)c2C)S(=O)(=O)c2ccccc2)cc1	100
CCCOc1ccc(S(=O)(=O)N(CC(=O)N/N=C2\C(=O)Nc3ccccc32)c2ccc(Cl)cc2)cc1	10
COc1ccc(N(CC(=O)N2CCc3ccccc3C2)S(=O)(=O)c2ccccc2)cc1	160

The next lines start with the values.

Ki [nM]	Structure (SMILES)
18	COc1ccc(S(=O)(=O)N(CC(=O)/N=N/c2c(O)[nH]c3ccccc23)c2ccc(Cl)cc2)cc1OC
> 10000	CCOc1ccc(S(=O)(=O)N(CCC(=O)/N=N/c2c(O)[nH]c3ccccc23)c2ccc(C)cc2)cc1
239	Cc1ccc(N(CC(=O)/N=N/c2c(O)[nH]c3ccccc23)S(=O)(=O)c2ccc3ccccc3c2)cc1
> 10000	CCOc1ccc(S(=O)(=O)N(CC(=O)/N=N/c2c(O)[nH]c3ccc(S(=O)(=O)O)cc23)c2ccc(C)cc2)cc1
> 10000	CCOc1ccc(S(=O)(=O)N(CC(=O)N/N=C/c2ccc(N(CC)CC)cc2O)c2ccc(C)cc2)cc1
60	CCOc1ccc(S(=O)(=O)N(CC(=O)N/N=C/c2ccccc2O)c2ccc(C)cc2)cc1
> 10000	CN(C)CCCOc1ccc(S(=O)(=O)N(CC(=O)/N=N/c2c(O)[nH]c3c(C(=O)O)cccc23)c2ccc(Cl)cc2)cc1
> 10000	CCOc1ccc(S(=O)(=O)N(CC(=O)/N=N/c2c(O)[nH]c3ccc([N+](=O)[O-])cc23)c2ccccc2)cc1
> 10000	CCOc1ccc(S(=O)(=O)N(CC(=O)N/N=C/c2ccccc2N)c2ccc(C)cc2)cc1
> 10000	CCOc1ccc(S(=O)(=O)N(CC(=O)N/N=C(\C)c2c(O)ccc3ccccc23)c2ccc(C)cc2)cc1

Species: Homo sapiens
Assay: Selectivity for human vasopressin V1a receptor over human oxytocin receptor
Details: not given

Structure (SMILES)	Ratio Ki	Ratio ki
COc1ccc(S(=O)(=O)N(CC(=O)N/N=C2\C(=O)Nc3ccccc32)c2ccc(C)cc2)cc1	22	
COC(=O)c1cccc2c1NC(=O)/C2=N\NC(=O)CN(c1ccc(Cl)cc1)S(=O)(=O)c1ccc(OCCCN(C)C)cc1	12	
CCOc1ccc(S(=O)(=O)N(CC(=O)N2Cc3ccccc3C2C(N)=O)c2ccc(OC)cc2)cc1 (configuration not stated)	2.1	
CCOc1ccc(S(=O)(=O)N(CC(=O)N2Cc3ccccc3CC2CC(N)=O)c2ccc(OC)cc2)cc1 (configuration not stated)		3.1
Cc1ccc(N(CC(=O)N/N=C2\C(=O)Nc3ccccc32)S(=O)(=O)c2ccc(C#N)cc2)cc1	62	
CN(C)CCCOc1ccc(S(=O)(=O)N(CC(=O)N/N=C2\C(=O)N(CC(N)=O)c3ccccc32)c2ccc(Cl)cc2)cc1	3	
Cc1ccc(N(CC(=O)N/N=C2\C(=O)Nc3ccccc32)S(=O)(=O)c2cccc3ccccc23)cc1	> 58	
CCCOc1ccc(S(=O)(=O)N(CC(=O)N/N=C2\C(=O)Nc3ccccc32)c2ccc(C)cc2)cc1	175	
CCCOc1ccc(S(=O)(=O)N(CC(=O)N/N=C2\C(=O)Nc3ccccc32)c2ccc(Cl)cc2)cc1	140	

Next, values leading:

Ratio Ki	Ratio ki	Structure (SMILES)
33		COc1ccc(S(=O)(=O)N(CC(=O)/N=N/c2c(O)[nH]c3ccccc23)c2ccc(Cl)cc2)cc1OC
> 42		Cc1ccc(N(CC(=O)/N=N/c2c(O)[nH]c3ccccc23)S(=O)(=O)c2ccc3ccccc3c2)cc1
54		CCOc1ccc(S(=O)(=O)N(CC(=O)N/N=C/c2ccccc2O)c2ccc(C)cc2)cc1

Tested on: not listed separately
Assay: Solubility in saline
Format: physicochemical
Details: not given

Structure (SMILES)	solubility [µg/mL]
CN(C)CCCNC(=O)CCc1ccc(S(=O)(=O)N(CC(=O)/N=N/c2c(O)[nH]c3ccccc23)c2ccc(Cl)cc2)cc1.O=C(O)C(F)(F)F	< 1
CN(C)CCCNC(=O)CCc1ccc(S(=O)(=O)N(CC(=O)/N=N/c2c(O)[nH]c3ccccc23)c2ccc(Cl)cc2)cc1.O=C(O)/C=C/C(=O)O	10000

The remaining lines, values ahead:

solubility [µg/mL]	Structure (SMILES)
7	CN(C)CCCOc1ccc(S(=O)(=O)N(CC(=O)/N=N/c2c(O)[nH]c3ccccc23)c2ccc(Cl)cc2)cc1.Cl
2.5	Cl.O=C(CN(c1ccc(Cl)cc1)S(=O)(=O)c1ccc(OCCN2CCOCC2)cc1)/N=N/c1c(O)[nH]c2ccccc12
10000	CN(C)CCCOc1ccc(S(=O)(=O)N(CC(=O)/N=N/c2c(O)[nH]c3ccncc23)c2ccc(Cl)cc2)cc1.O=C(O)C(F)(F)F
